Data taken from PubChem BioAssay (NCI).
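Growth conditions: 96-well plates. Treatment: test compound, 48 hours, 5 concentrations. Analysis: linear interpolation between bracketing concentrations; unreached endpoints set to highest concentration. GI50 is the concentration that inhibits growth by half. Definition used: TGI = concentration required for complete inhibition of growth.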

Columns and labels:
Experiment in all cases: growth of human tumour cells (NCI), 48 h
RXF 393 renal = system: RXF 393 renal
SK-MEL-28 melanoma = system: SK-MEL-28 melanoma
NCI/ADR-RES ovarian = system: NCI/ADR-RES ovarian
OVCAR-8 ovarian = system: OVCAR-8 ovarian
BT-549 breast = system: BT-549 breast
MDA-MB-231 breast = system: MDA-MB-231 breast
SK-MEL-2 melanoma = system: SK-MEL-2 melanoma
PC-3 prostate = system: PC-3 prostate
SN12C renal = system: SN12C renal
MDA-MB-468 breast = system: MDA-MB-468 breast
SK-MEL-5 melanoma = system: SK-MEL-5 melanoma
NCI-H460 lung = system: NCI-H460 lung
SF-295 CNS = system: SF-295 CNS
786-0 renal = system: 786-0 renal
DU-145 prostate = system: DU-145 prostate
T-47D breast = system: T-47D breast
EKVX NSCLC = system: EKVX NSCLC
NCI-H226 lung = system: NCI-H226 lung
LOX IMVI melanoma = system: LOX IMVI melanoma
MOLT-4 leukemia = system: MOLT-4 leukemia
UACC-62 melanoma = system: UACC-62 melanoma
IGROV1 ovarian = system: IGROV1 ovarian
NCI-H23 lung = system: NCI-H23 lung
SK-OV-3 ovarian = system: SK-OV-3 ovarian
HOP-92 NSCLC = system: HOP-92 NSCLC
HCT-15 colon = system: HCT-15 colon
NCI-H522 lung = system: NCI-H522 lung

COc1ccc(C(=O)/C=C/c2ccc(Cl)c(C(F)(F)F)c2)cc1S(N)(=O)=O
GI50 (RXF 393 renal): 1640 nM
TGI (RXF 393 renal): 3100 nM
GI50 (SK-MEL-28 melanoma): 1740 nM
TGI (SK-MEL-28 melanoma): 3190 nM
GI50 (NCI/ADR-RES ovarian): 1050 nM
TGI (NCI/ADR-RES ovarian): 3330 nM
GI50 (OVCAR-8 ovarian): 1740 nM
TGI (OVCAR-8 ovarian): 4510 nM
GI50 (BT-549 breast): 1710 nM
TGI (BT-549 breast): 3180 nM
GI50 (MDA-MB-231 breast): 1690 nM
TGI (MDA-MB-231 breast): 3370 nM
GI50 (SK-MEL-2 melanoma): 6780 nM
TGI (SK-MEL-2 melanoma): 20400 nM
GI50 (PC-3 prostate): 1750 nM
TGI (PC-3 prostate): 4520 nM
GI50 (SN12C renal): 1450 nM
TGI (SN12C renal): 2940 nM
GI50 (MDA-MB-468 breast): 1340 nM
TGI (MDA-MB-468 breast): 2690 nM
GI50 (SK-MEL-5 melanoma): 3630 nM
TGI (SK-MEL-5 melanoma): 13300 nM
GI50 (NCI-H460 lung): 2400 nM
TGI (NCI-H460 lung): 6620 nM
GI50 (SF-295 CNS): 1640 nM
TGI (SF-295 CNS): 3320 nM
GI50 (786-0 renal): 419 nM
TGI (786-0 renal): 1800 nM
GI50 (DU-145 prostate): 4990 nM
TGI (DU-145 prostate): 17000 nM
GI50 (T-47D breast): 2370 nM
TGI (T-47D breast): 9360 nM
GI50 (EKVX NSCLC): 2150 nM
TGI (EKVX NSCLC): 5750 nM
GI50 (NCI-H226 lung): 2220 nM
TGI (NCI-H226 lung): 5600 nM
GI50 (LOX IMVI melanoma): 313 nM
TGI (LOX IMVI melanoma): 1100 nM
GI50 (MOLT-4 leukemia): 2570 nM
TGI (MOLT-4 leukemia): 8330 nM
GI50 (UACC-62 melanoma): 1520 nM
TGI (UACC-62 melanoma): 3410 nM
GI50 (IGROV1 ovarian): 1870 nM
TGI (IGROV1 ovarian): 4010 nM
GI50 (NCI-H23 lung): 1620 nM
TGI (NCI-H23 lung): 3040 nM
GI50 (SK-OV-3 ovarian): 7900 nM
TGI (SK-OV-3 ovarian): 23800 nM
GI50 (HOP-92 NSCLC): 2010 nM
TGI (HOP-92 NSCLC): 5810 nM
GI50 (HCT-15 colon): 893 nM
TGI (HCT-15 colon): 2340 nM
GI50 (NCI-H522 lung): 1540 nM
TGI (NCI-H522 lung): 3150 nM
